The values below come from patent publication US12054475B2, “Substituted heterocycles as aldehyde dehydrogenase inhibitors” (KayoThera Inc., priority 2021, dated 2024).

Several values for one entry are separate records, joined by “and”; a condition that tells them apart may be missing. Equal values may be shown once. A value given as a limit tells only on which side of the number the result lay.

As usually defined, the IC50 is the midpoint of a concentration-inhibition curve.

The target in data set [1] is T1, hALDH1a2 (Homo sapiens (Human), UniProt O94788). As to the kind of experiment: Aldh1a2 enzyme inhibition assay (recombinant enzyme, resorufin fluorescence). Format: biochemical.
T1 sequence (O94788 whole entry): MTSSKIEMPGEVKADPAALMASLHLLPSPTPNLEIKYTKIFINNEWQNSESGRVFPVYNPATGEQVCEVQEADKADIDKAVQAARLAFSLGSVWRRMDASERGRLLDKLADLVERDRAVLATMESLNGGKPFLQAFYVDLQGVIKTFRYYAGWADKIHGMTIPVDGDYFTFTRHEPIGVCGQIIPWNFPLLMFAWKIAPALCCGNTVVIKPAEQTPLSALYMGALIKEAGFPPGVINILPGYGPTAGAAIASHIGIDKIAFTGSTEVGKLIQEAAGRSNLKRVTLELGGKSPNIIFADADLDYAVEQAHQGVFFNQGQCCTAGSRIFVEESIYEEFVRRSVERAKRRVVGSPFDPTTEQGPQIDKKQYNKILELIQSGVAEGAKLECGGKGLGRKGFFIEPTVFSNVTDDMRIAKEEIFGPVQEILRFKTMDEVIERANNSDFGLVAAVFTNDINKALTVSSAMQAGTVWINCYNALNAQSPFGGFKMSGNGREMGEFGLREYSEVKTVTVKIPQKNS
The target of another data set is mALDH1a2 (Mus musculus (Mouse), UniProt Q62148). Described as above. Format: biochemical. From the text:
Recombinant enzyme and inhibitor added immediately before assay. Reaction rate measured by resorufin fluorescence.

The target in data set [2] is T1, hALDH1a2. As to the kind of experiment: Cell based assay: STRA6 mRNA by q-rtPCR in MCF7 cells expressing ALDH1a2. The note with it: 20 hours incubation, read-out: IC50 (ALDH1a2), STRA6 mRNA levels. On the procedure: (§1) MCF7 cells were stably transduced with lentiviral vectors encoding human ALDH1a1, ALDH1a2 or ALDH1a3 or Vector control and selected by puromycin to establish stable cultures that were verified for overexpression by western blotting and Aldefluor activity. Cells were plated into 6 cm plates in regular DMEM media supplement with […]. At the beginning of the assay, cells were washed with PBS for 5 minutes followed by addition of compound solvated into DMEM media with 10% FBS or corresponding DMSO controls, maintaining DMSO at a constant concentration of 0.1% across all samples. Following 20 hours of incubation at 37 C, cells were lysed and RNA was extracted using a Qiagen RNAeasy kit. cDNA was synthesized using the Superscript IV kit and retinoid activation was measured using STRA6 mRNA levels as a proxy as measured by q-rtPCR.

Another data set concerns the target hALDH1a3 (Homo sapiens (Human), UniProt P47895). As to the kind of experiment: Cell based assay: STRA6 mRNA by q-rtPCR in MCF7 cells expressing ALDH1a3. The settings on record: 20 hours incubation, read-out: IC50 (Aldh1a3), STRA6 mRNA levels. On the procedure: as §1
The subject of data set [3] is T3-MCA fibrosarcoma cell line allografts. As to the kind of experiment: T3-MCA fibrosarcoma allograft study. Format: in vivo, C57BL6 syngeneic mice. The settings on record: for tolerability / tumor growth: oral, 40 mg/kg once daily for twelve days. The procedure: In one allograft study, T3-MCA fibrosarcoma cell line allografts were implanted subcutaneously into C57BL6 syngeneic mice. […] Tumor volume were measured on day 8, 14, and 17 post inoculation for each group, and tumor mass were measured at the end of the study.
In another allograft study, T3-MCA fibrosarcoma cell line allografts were implanted subcutaneously into C57BL6 syngeneic mice.

In data set [4] the test system is K-Ras, p53 −/− undifferentiated pleiomorphic sarcoma cell line allografts. As to the kind of experiment: K-Ras, p53 -/- undifferentiated pleiomorphic sarcoma allograft study. Format: in vivo, C57BL6 syngeneic mice. The note with it: single agent, 20 days; Compound 140 40 mg/kg intraperitoneal, MBE1.5 25 mg/kg daily equivalent in diet. On the procedure:
In another allograft study, K-Ras, p53 −/− undifferentiated pleiomorphic sarcoma cell line allografts were implanted subcutaneously into C57BL6 syngeneic mice. […] Tumor volume were measured on day 14, 17, and 24 post inoculation for each group, and tumor mass were measured at the end of the study.

Data set [5] concerns T3-MCA fibrosarcoma cell line allografts. As to the kind of experiment: Combination with anti-PD-1 in T3-MCA fibrosarcoma allografts. The note with it: for tumor growth as a single agent: 40 mg/kg daily equivalent, oral medicated diet, Day 9 to Day 25. Format: in vivo, C57BL6 syngeneic mice. On the procedure:
T3-MCA fibrosarcoma cell line allografts were implanted subcutaneously into C57BL6 syngeneic mice. […] Medicated diet was initiated at Day 9 after mice were randomized and continued until termination at Day 25. Anti-PD-1 antibody was administered by intraperitoneal injection at Day 11, 14, 18 and 21 by a 200 uL injection of a 1 mg/mL solution in saline. Tumor volume were measured on day 14, 18, 22, and 25 post inoculation for each group.

Data set [6] deals with primary tumors and metastasis. As to the kind of experiment: Mouse xenograft models, ALDH1a3 inhibitor in conjunction with paclitaxel. The format is in vivo. The note with it: with chemotherapy agent paclitaxel.
Data set [7] is described as follows: Pharmacokinetic profiling in mice.

Chain of hALDH1a3 (P47895 whole entry): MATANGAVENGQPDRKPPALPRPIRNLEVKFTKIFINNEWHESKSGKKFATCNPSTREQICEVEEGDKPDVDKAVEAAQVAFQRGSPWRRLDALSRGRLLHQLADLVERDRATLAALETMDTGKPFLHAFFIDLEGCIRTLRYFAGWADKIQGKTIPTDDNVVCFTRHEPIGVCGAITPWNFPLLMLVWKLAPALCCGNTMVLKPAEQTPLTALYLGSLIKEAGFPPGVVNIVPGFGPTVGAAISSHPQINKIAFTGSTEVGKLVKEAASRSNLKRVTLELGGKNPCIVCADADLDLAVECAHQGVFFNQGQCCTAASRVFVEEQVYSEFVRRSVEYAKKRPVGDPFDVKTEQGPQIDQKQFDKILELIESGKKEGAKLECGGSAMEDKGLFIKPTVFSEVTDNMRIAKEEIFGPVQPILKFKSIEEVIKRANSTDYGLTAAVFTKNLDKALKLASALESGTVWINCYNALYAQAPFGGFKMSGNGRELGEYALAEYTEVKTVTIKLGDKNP
Chain of mALDH1a2 (Q62148 whole entry): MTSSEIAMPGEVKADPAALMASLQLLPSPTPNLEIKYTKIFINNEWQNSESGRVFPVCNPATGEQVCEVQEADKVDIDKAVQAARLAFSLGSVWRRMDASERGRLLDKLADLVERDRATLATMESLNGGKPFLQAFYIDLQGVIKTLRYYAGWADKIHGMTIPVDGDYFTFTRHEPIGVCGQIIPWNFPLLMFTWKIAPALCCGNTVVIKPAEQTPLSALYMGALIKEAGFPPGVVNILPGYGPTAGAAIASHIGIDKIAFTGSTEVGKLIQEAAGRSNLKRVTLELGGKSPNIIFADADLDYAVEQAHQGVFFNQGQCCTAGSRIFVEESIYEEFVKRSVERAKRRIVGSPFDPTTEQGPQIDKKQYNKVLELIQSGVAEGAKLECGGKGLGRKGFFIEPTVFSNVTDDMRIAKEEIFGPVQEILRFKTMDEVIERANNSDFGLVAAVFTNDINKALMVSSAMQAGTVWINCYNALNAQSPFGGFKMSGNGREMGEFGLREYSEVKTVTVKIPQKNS

For the compound `CCc1cnccc1C(=O)Nc1cc(C)c2c(c1)CCC(=O)N2` [Compound 140, 3-ethyl-N-(8-methyl-2-oxo-3,4-dihydro-1H-quinolin-6-yl)pyridine-4-carboxamide], the half-inhibitory concentration (IC50) at hALDH1a2 [1] is 99 nM; at mALDH1a2, 96 nM; on hALDH1a2 [2], 27.6 nM and < 50 nM; at hALDH1a3, 6.97 nM and < 50 nM. For the same compound, in [3], the tolerability result was “excellent tolerability”. Moreover, the tumor growth result in data set [3] was “successful inhibition of tumor growth”. In addition, the “tumor growth (caliper measurement, tumor mass at endpoint)” value in [3] (single agent, once daily for 9 days, Compound 140 40 mg/kg intraperitoneal, MBE1.5 25 mg/kg daily equivalent in diet) is given as “successful inhibition of tumor growth as a single agent”; in data set [4], “successful inhibition of tumor growth as a single agent”. In addition, the “tumor growth, combined treatment with anti-PD-1 antibody” value in [5] (40 mg/kg daily equivalent oral medicated diet plus anti-PD-1 200 microgram i.p. Day 11, 14, 18, 21) is “synergy with anti-PD-1 antibody in causing tumor regression”. For the same compound, the “tumor growth as a single agent” value in data set [5] is listed as “successful inhibition of tumor growth as a single agent”; in data set [5] (listed as compound 140) it was “inhibits tumor growth as a single agent”.
With `Cc1cc(NC(=O)c2ccncc2CC(F)(F)F)cc2c1NC(=O)CC2` [Compound 151, N-(8-methyl-2-oxo-3,4-dihydro-1H-quinolin-6-yl)-3-(2,2,2-trifluoroethyl)pyridine-4-carboxamide], the IC50 at hALDH1a2 [1] is 75 nM; on mALDH1a2, 86 nM; at hALDH1a2 [2], 55.3 nM and < 50 nM; at hALDH1a3, 1.25 nM and < 50 nM. The tolerability result in data set [3] is reported as “excellent tolerability”. Also, the tumor growth entry in data set [3] is on record as “successful inhibition of tumor growth”.
Consider `CCc1cnccc1C(=O)Nc1cc2c(cc1F)NC(=O)CC2` [MBE1], for which the IC50 on hALDH1a2 [2] worked out at 1670 nM; on hALDH1a3, 3.67 nM. Further, the “efficacy in conjunction with paclitaxel” value in data set [6] is “effective in treating established metastatic diseases”. For the same compound, the “cage side observations, adverse reactions” value in data set [7] (0 hours to 24 hours post-dosing, mice) is reported as “no adverse reactions”. Besides, the “plasma half-life, IV bolus dosing” value in [7] (male CD-1/C57BL/6 mice, 1 mg/kg intravenous) is 1.79 h. For the same compound, the “plasma half-life, PO oral gavage dosing” value in data set [7] (male CD-1/C57BL/6 mice, 10 mg/kg oral gavage) came out at 1.37 h. The same compound came in with an oral bioavailability in data set [7] (male CD-1/C57BL/6 mice, 10 mg/kg oral gavage, 1 mg/kg intravenous) of 88%. Also, in [7] (oral gavage (PO) and intravenous (IV) administration, n=3 mice per group), the “time plasma concentrations exceed 5-fold the IC50” value was more than 10 h.
